In the COVID Moonshot data (paper PMC7615835):

Molecular target: SARS-CoV-2 Main Protease (SARS-CoV-2) (UniProt P0DTD1)

SMILES | IC50 [µM]
COc1nc2ncc(C(C(=O)NCCc3cccc(F)c3)N(C(=O)c3cocn3)c3ccc(C(C)(C)C)cc3)cn2n1 (stereo not drawn) | 33.4
CC1(c2ccc(N(C(=O)c3cocn3)C(C(=O)NCCc3cccc(F)c3)c3cccnc3)cc2)OCCO1 (stereo not drawn) | 83.1
C=CC(=O)N(c1ccc(C(C)(C)C)cc1)C(C(=O)Nc1ccc(OC)cc1C)c1cccnc1 (stereo not drawn) | > 99
N#Cc1ccc(Cl)c(Nc2cc(Cl)cc(CC(=O)Nc3cncc4ccccc34)c2)c1 | 1.99
CC(C)(C)c1ccc(O)c(Nc2cc(Cl)cc(CC(=O)Nc3cncc4ccccc34)c2)c1 | 6.5
O=C1CC(C(=O)N2CCN(c3cccc(Cl)c3)CC2)c2ccccc2N1 (stereo not drawn) | 20.9
Cc1ccncc1NC(=O)Cc1cc(Cl)cc(-c2ccc(C3(C)CCO3)cc2)c1 (stereo not drawn) | 8.95
CC[C@]1(c2ccc(Nc3cc(Cl)cc(CC(=O)Nc4cncc5ccccc45)c3)cc2)CCC(=O)NC1=O (stereo in doubt) | 1.91
O=C(Cc1cc(Cl)cc(NCc2ccc(F)c(Cl)c2)c1)Nc1cncc2ccccc12 | 2.49
O=C(c1ccc2nnnn2c1)N1CCn2c(cc3ccccc32)C1 | > 99.5
O=C(Nc1cncc2cc(F)ccc12)[C@@H]1CCS(=O)(=O)c2ccc(Cl)cc21 (stereo in doubt) | 0.294
Cc1cc(Nc2cc(Cl)cc(CC(=O)Nc3cncc4ccccc34)c2)cnc1Br | 1.95
O=C(Cc1cccc(Cl)c1)Nc1cncc2c1NCCC2 | 38
NC(=O)c1ccc(Cl)c(Nc2cc(Cl)cc(CC(=O)Nc3cncc4ccccc34)c2)c1 | 1.79
CC1(C(=O)Nc2cncc3ccccc23)CNC(=O)c2ccc(Cl)cc21 (stereo not drawn) | 0.876
Cc1cc(Br)cc(Nc2cc(Cl)cc(CC(=O)Nc3cncc4ccccc34)c2)c1 | 1.96
CCOC(=O)c1cc(-c2cc(Cl)cc(CC(=O)Nc3cnccc3C)c2)n[nH]1 | > 99.5
COc1cc(OC)cc(-c2nc(-c3c(C)nc4sccn34)no2)c1 | > 99.5
CC(C)(C)c1ccc(N(C(=O)c2cocn2)C(C(=O)NCC(=O)OCc2ccccc2)c2cccnc2)cc1 (stereo not drawn) | 9.92
O=C(Cc1cc(Cl)cc(NC[C@H](O)c2ccc(O)cc2)c1)Nc1cncc2ccccc12 (stereo in doubt) | 1.64
O=C(Nc1cncc2cccc(Cl)c12)C12CC(C1)Oc1ccc(Cl)cc12 | 75.1
Cc1cc(Nc2cc(Cl)cc(CC(=O)Nc3cncc4ccccc34)c2)ncc1I | 2.35
Cc1cn(-c2cc(Nc3cc(Cl)cc(CC(=O)Nc4cncc5ccccc45)c3)cc(C(F)(F)F)c2)cn1 | 2.53
CCc1n[nH]c(=O)c(-c2nc(-c3c[nH]c4ncccc34)cs2)c1CC | > 99.5

SMILES | IC50 [µM]
O=C(Cn1nnc2ccccc21)N(Cc1ccccn1)c1ccc(-n2cnnc2)cc1 | > 99.5
CC1(C(=O)Nc2cncc3cc(S(C)(=O)=O)ccc23)CN(CC2CC2)S(=O)(=O)c2ccc(Cl)cc21 (stereo not drawn) | 0.615
CCC(=O)Nc1ccc(N(Cc2cscn2)C(=O)Cn2nnc3ccccc32)cc1 | 25
Cc1nc2cc(C(=O)NNc3nc4ccncc4s3)ccc2o1 | > 99.5
CNC(=O)Nc1ccc(N(Cc2ccsc2)C(=O)Cn2nnc3ccccc32)cc1 | 1.42
CCOC1CC2(C1)CC2N(C(=O)c1ccco1)C(C(=O)NCCc1cccc(F)c1)c1cccnc1 (stereo not drawn) | > 99.5
O=C1CCCN(S(=O)(=O)c2cccs2)CC1 | > 99.5
O=C(Nc1c[nH]c(=O)c2ccccc12)C1CCOc2ccc(Cl)cc21 (stereo not drawn) | > 99.5
C[C@@H]1CC[C@@]2(OC1)O[C@H]1C[C@H]3[C@@H]4CC=C5C[C@@H](O)CC[C@]5(C)[C@H]4CC[C@]3(C)[C@]1(O)[C@@H]2C (stereo in doubt) | > 99.5
O=C(NCCc1cccc(F)c1)C(c1cccnc1)N(C(=O)c1cnc[nH]1)c1ccc(Cl)cc1 (stereo not drawn) | > 99.5
CN(C)CCOc1ccc2cncc(NC(=O)C3CN(S(=O)(=O)CC4(C#N)CC4)Cc4ccc(Cl)cc43)c2c1 (stereo not drawn) | 0.117
CNC(=O)N1CCc2ccc(Cl)cc2C1C(=O)Nc1cncc2ccccc12 (stereo not drawn) | 2.47
C=CC(=O)N(c1cc(C(C)(C)C)on1)C(C(=O)NCCc1cccc(F)c1)c1cncc(O)c1 (stereo not drawn) | > 99.5
CC(C)(C)c1ccc(N(C(=O)c2cocn2)C(C(=O)NCCc2cccc(F)c2)c2cccnc2)cc1 (stereo not drawn) | 0.557
CNC(=O)CN1Cc2ccc(Cl)cc2[C@]2(CCN(c3cncc4c3CCCC4)C2=O)C1 (stereo in doubt) | > 99.5
CN(C)c1ccc(N(Cc2ccsc2)C(=O)Cn2nnc3ccccc32)cc1 | 1.79
O=C(Cc1ccc(Cl)c(Cl)c1)Nc1cncc2ccncc12 | 1.79
COCc1csc(N(C(=O)c2cocn2)C(C(=O)NCCc2cccc(F)c2)c2cccnc2)n1 (stereo not drawn) | > 99.5
O=C(Nc1cccc(F)c1)[C@@H](c1ccccc1)N1Cc2ccccc2C1=O (stereo in doubt) | > 99.5
O=C(NCc1ccc(Cl)cc1CN1CCN(C(=O)CCl)CC1)[C@@H]1CCCOC1 (stereo in doubt) | 12.1
C=CC(=O)N(c1ccc(C2(C)CC2)cc1)C(C(=O)Nc1cccc(CC)c1)c1cccnc1 (stereo not drawn) | > 99
O=C(Cc1cncc2ccccc12)Nc1cccc(Cl)c1 | 6.47
O=C(Nc1cnc2ccccn12)C1CCNc2cc(Cl)c(Cl)cc21 (stereo not drawn) | 1.98
CC(CCc1ccccc1)N1CCN(C(=O)CCl)CC1 (stereo not drawn) | 20.3
